These results are taken from patent US10548883B2, “Benzotriazole-derived α and β-unsaturated amide compound used as TGF-β RI inhibitor” (GENFLEET THERAPEUTICS (SHANGHAI) INC., priority 2016, dated 2020).

A word on the IC50: it is the concentration at which inhibition is half-maximal. A low value points to inhibition by little substance.

In one test the target is T1, TGF-βRI (Homo sapiens, UniProt P36897).
T1 sequence (P36897 34-503): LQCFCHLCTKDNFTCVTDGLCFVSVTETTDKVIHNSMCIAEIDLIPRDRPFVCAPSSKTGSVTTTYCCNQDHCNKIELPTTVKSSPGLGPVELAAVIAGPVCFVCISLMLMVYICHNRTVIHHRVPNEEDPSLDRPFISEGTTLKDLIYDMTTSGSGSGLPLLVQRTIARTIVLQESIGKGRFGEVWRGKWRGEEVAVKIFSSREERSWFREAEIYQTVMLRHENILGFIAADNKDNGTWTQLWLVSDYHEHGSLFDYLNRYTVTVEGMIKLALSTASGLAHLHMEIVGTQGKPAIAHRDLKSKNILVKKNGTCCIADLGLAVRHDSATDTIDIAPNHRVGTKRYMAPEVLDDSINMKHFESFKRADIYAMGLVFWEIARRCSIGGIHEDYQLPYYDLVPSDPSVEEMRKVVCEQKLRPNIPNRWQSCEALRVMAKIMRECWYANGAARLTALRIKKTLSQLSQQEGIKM
Kind of test: Test of inhibitory activity of TGFβ-RI in vitro. The class given is biochemical. Conditions: 10 μM ATP. The protocol:
i) Test compound: the IC50 was determined by diluting into 10 gradient points with each gradient by three-fold dilution and with a starting concentration of 5 μM.
ii) The IC50 of reference compound LDN193189 was determined by diluting into 10 gradient points with each gradient by three-fold dilution and with a starting concentration of 20 μM.
iii) The reaction system contains 10 μM ATP.
iv) Calculate the IC50 value by curve fitting when the percentage of enzyme activity (compared to the solvent group) is below 65% at the highest concentration of the sample.

In test [1] the test system is NIH/3T3 mouse embryonic cells. Kind of test: Test of proliferation inhibition on NIH/3T3 mouse embryonic cells (CellTiter-Glo, with TGF-β1). It counts as cell-based. The following applies: NIH3T3, 0.2 ng/mL TGF-β1, 72 h. As to the method:
Promega's Luminescent Cell Viability Assay (CellTiter-Glo® method, i.e. ATP fluorescence activity detection and analysis), the compound is added to the cell culture plate for incubation. A substrate buffer for detecting intracellular ATP content was added on the day of detection. Slightly shake and centrifuge at 1000 rpm for 1 min. Tested after standing for 10 min. The assay plate was analyzed using Envision multifunctional enzyme marker of PerkinElmer, Inc., and the analysis mode was fluorescence detection, and the data was expressed by the reading of chemiluminescence signal at 400-700 nm.
i) When the cell growth coverage is about 70%, the cell layer was washed with 10 mL of Duchenne phosphate buffer (D-PBS) which is calcium- and magnesium-free, then 2 mL of 0.25% trypsin-EDTA digest was added. The cell culture flask was placed in a CO2 carbon dioxide incubator at 37° C. and incubated for 3-5 min, then 8 mL of complete culture medium containing 2% FBS DMEM cells was added, and the cells were puffed evenly into single cell and counted by Vi-cell cytometer, and NIH/3T3 cell suspension was diluted to 0.375×10^5/mL cells.
ii) 50 μL of 2% DMEM-containing medium was added around the 384-well cell culture plate, then 40 μL of cell suspension was added to the remaining wells to 1500 cells per well. The distribution of the cells was observed under a microscope, and the cell plates were placed in a cell culture incubator with 5% CO2 at 37° C.
iii) Dilution of the compound refers to the preparation of the compound.
iv) A mixture of 2% fetal bovine serum containing 1 ng/mL TGF-β1 in DMEM medium was added manually to the compound intermediate plate, 20 μL per well.
v) The compound intermediate plate was shook slightly for 10 sec at 1000 rpm/min and centrifuge for 10 sec.
vi) 10 uL of the mixed liquid from steps 4 and 5 of each well was transferred to the inoculated cell plate to a final volume of 50 μL by using a Bravo liquid workstation, and the final concentration of TGF-β1 was diluted to 0.2 ng/mL, and centrifuged for 10 sec at 1000 rpm/min. The plates were placed in an incubator with 5% carbon dioxide at 37° C., 5% carbon dioxide for 72 h. The final concentration of the compound is: (unit: μM)
vii) The cell plate containing the compound was cultured in a cell incubator with 5% CO2 at 37° C. for 3 days.
viii) After that, 25 μL of ATP fluorescence activity detection solution was added to each well of the cell plate, then shook gently for about 1 min and centrifuged at 500 rpm/min for about 30 sec, and the reading was performed in an Envision instrument after standing at room temperature for 10 min in the dark.
On the technique in general: Cellular ATP, detected with luciferase, serves as a proxy for viable cell number.

In the case of `Cc1cccc(-c2nn(Cc3cccc(C(F)F)c3)cc2-c2ccc3ncnn3c2/C=C/C(N)=O)n1` [Embodiment 9], the results for the IC50 (against TGF-βRI; in test [1]) were 50 to 500 nM and 500 to 2000 nM, respectively.

`Cc1cc(C)nc(-c2nn3c(c2-c2ccc4ncnn4c2/C=C/C(N)=O)CCC3)c1` [Embodiment 11]: the IC50 on TGF-βRI is more than 500 nM.

Regarding `Cc1cccc(-c2nn3c(c2-c2ccc4ncnn4c2/C=C/C(=O)NCCO)CCC3)n1` [Embodiment 5], the 50% inhibitory concentration (IC50) was 50 to 500 nM against TGF-βRI and more than 5000 nM in test [1].

As for `Cc1cccc(-c2nn(C3CCCC3)cc2-c2ccc3ncnn3c2/C=C/C(N)=O)n1` [Embodiment 7], the IC50 against TGF-βRI lay within 50 to 500 nM.

As for `Cc1cccc(-c2nn(C(C)C)cc2-c2ccc3ncnn3c2/C=C/C(N)=O)n1` [Embodiment 8], the half-maximal inhibitory concentration (IC50) lay in the range of 50 to 500 nM at TGF-βRI and 2000 to 5000 nM in test [1].

For `CCNC(=O)/C=C/c1c(-c2c(-c3cccc(C)n3)nn3c2CCC3)ccc2ncnn12` [Embodiment 3], the IC50 lay in the range of 50 to 500 nM on TGF-βRI and 2000 to 5000 nM in test [1].

Regarding `CCc1cccc(-c2nn3c(c2-c2ccc4ncnn4c2/C=C/C(N)=O)CCC3)n1` [Embodiment 10], the IC50 at TGF-βRI lay within 50 to 500 nM; in test [1], 2000 to 5000 nM.

With `CNC(=O)/C=C/c1c(-c2c(-c3cccc(C)n3)nn3c2CCC3)ccc2ncnn12` [Embodiment 2], the IC50 at TGF-βRI is 50 to 500 nM; in test [1] it was 2000 to 5000 nM.

With `Cc1cccc(-c2nn(Cc3cccc(C#N)c3)cc2-c2ccc3ncnn3c2/C=C/C(N)=O)n1` [Embodiment 6], the IC50 on TGF-βRI was in the range of 50 to 500 nM; in test [1] it was 500 to 2000 nM.

For the molecule `Cc1cccc(-c2nn3c(c2-c2ccc4ncnn4c2/C=C/C(=O)NC2CC2)CCC3)n1` [Embodiment 4], the half-inhibitory concentration (IC50) lay in the range of 50 to 500 nM against TGF-βRI and 2000 to 5000 nM in test [1].

On TGF-βRI, `Cc1nc(-c2nn3c(c2-c2ccc4ncnn4c2/C=C/C(N)=O)CCC3)ccc1Cl` [Embodiment 12] yielded an IC50 of more than 500 nM.
